According to ChEMBL document CHEMBL1126193, “Omega-[(omega-arylalkyl)thienyl]alkanoic acids: from specific LTA4 hydrolase inhibitors to LTB4 receptor antagonists” (J Med Chem, 1992):

Experiments:
[1] = system: Leukotriene A-4 hydrolase (Sus scrofa); test: Tested for Percentage inhibition of LTA4 hydrolase at 2*10e-5M concentration in porcine leukocyte homogenates
[2] = system: Leukotriene B4 receptor 1 (Cavia porcellus); test: Percent inhibition of [3H]-LTB4 binding to guinea pig spleen Leukotriene B4 receptor at the concentration of 10e-5 M
[3] = compound was tested for 50% inhibition of LTA4 hydrolase at 2*10e-5M concentration in porcine leukocyte homogenates; assay type: tissue-based, Sus scrofa
[4] = system: Leukotriene A-4 hydrolase (Sus scrofa); test: Tested for 50% inhibition of LTA4 hydrolase at 2*10e-5M concentration in porcine leukocyte homogenates

Row | inhibition [1] | inhibition [2] | IC50 [3] | inhibition [4] | Compound
1 |  | 59% |  |  | O=C(O)CCCCCC(=O)c1sccc1CCCc1ccccc1
2 |  | 38% |  | 0% | O=C(O)CCCCCCc1ccsc1CCc1ccccc1
3 |  | 17% |  |  | O=C(O)CCCCCCc1ccsc1C(=O)CCc1ccccc1
4 |  | 36% |  | 32% | O=C(O)CCCCCc1cc(CCCc2ccccc2)cs1
5 |  | 15% |  | 0% | O=C(O)CCCCCCc1sccc1Cc1ccccc1
6 |  |  |  | 0% | O=C(O)CCCCCCc1ccsc1CCCc1ccccc1
7 |  |  |  | 0% | O=C(O)CCCCc1sccc1CCCc1ccccc1
8 |  | 51% |  |  | Cc1cc(C(=O)CCCCCC(=O)O)c(CCCc2ccccc2)s1
9 |  |  |  | 0% | O=C(O)CCCCCCc1sccc1CCCc1ccccc1
10 |  | 39% |  | 9% | O=C(O)CCCCCCc1sccc1CCCCCc1ccccc1
11 | 0% |  |  |  | Cc1cc(CCCCCCC(=O)O)c(CCCc2ccccc2)s1
12 |  |  |  | 49% | O=C(O)CCCCCCc1csc(CCc2ccccc2)c1

Second part, the compound before the results:

Row | Compound | inhibition [1] | inhibition [2] | IC50 [3] | inhibition [4]
13 | O=C(O)CCCCCCc1sc(-c2ccccc2)cc1CCCc1ccccc1 | 0% |  |  | 
14 | O=C(O)CCCCCCc1csc(CCCc2ccccc2)c1 |  | 10% | 1500 nM | 100%
15 | O=C(O)CCCCCCc1cc(CCCCCc2ccccc2)cs1 |  | 31% |  | 49%
16 | O=C(O)CCCCCCc1cc(CCCc2ccccc2)cs1 |  | 38% |  | 42%
17 | O=C(O)CCCCc1cc(CCCc2ccccc2)cs1 |  | 35% |  | 0%
18 | O=C(O)CCCCCCc1csc(Cc2ccccc2)c1 |  |  |  | 68%
19 | O=C(O)CCCCCCc1csc(CCCc2ccc(Cl)cc2)c1 | 73% |  |  | 
20 | O=C(O)CCCCCCc1csc(CCCc2ccc(O)cc2)c1 | 100% |  |  | 
21 | COc1ccc(CCCc2cc(CCCCCCC(=O)O)cs2)cc1 | 68% |  |  | 
22 | O=C(O)CCCCCCc1cc(-c2ccccc2)cs1 |  | 0% |  | 25%
23 | O=C(O)CCCCCCc1ccsc1CCCc1ccc(Cl)cc1 | 24% |  |  | 
24 | O=C(O)CCCCCCc1cc(Cc2ccccc2)cs1 |  | 33% | 9600 nM | 70%
25 | O=C(O)CCCCCCc1ccc(CCCc2ccccc2)s1 |  |  | 2900 nM | 84%
